Data from patent publication US12570667B2, “Compounds with antibacterial and anti viral activities” (priority 2020, dated 2026).
In brackets after ≈: the same amount, converted by molar mass. Like-named read-outs stand apart in the source and are kept apart here.

Experiments:
[1] = system: E. coli; assay: Antibacterial activity by spread plate-disc diffusion method; assay type: cell-based; settings: 20 μl from 1 mg/ml stock per disc, 37° C., 24 h, "0" indicates no antibacterial activity
Description: (§1) In an embodiment, the antibacterial activity of nigericin and compounds of formula I are determined by the Disc diffusion method. […] The compounds of formula I are found to be inhibiting both gram-positive and gram-negative bacteria.
(§2) Nigericin along with compounds of formula I were tested against Gram-positive (S. aureus) and Gram-negative (E. coli) test organisms by spread plate-disc diffusion method. 20 μl from 1 mg/ml concentration stock was used per disc for each test compound and plated were incubated at 37° C. for 24 h. After the incubation period zone of inhibition was measured.

[2] = system: S. aureus; assay: as above; assay type: cell-based; settings: 20 μl from 1 mg/ml stock per disc, 37° C., 24 h, "0" indicates no antibacterial activity
Description: as §1, §2

[3] = system: E. coli; assay: Minimum inhibitory concentration by micro-dilution method; assay type: cell-based; settings: Gram-negative organism E. coli; for MIC: Escherichia coli
Description: (§3) MIC determination: Minimum inhibitory concentration was determined using micro-dilution method in the 96 well plates. 20 μl from 1 mg/ml stock was mixed with culture to get 66 μg/ml concentration and serially diluted in further well to get a concentration of 33 μg/ml, 16.5 μg/ml and so on, refer FIG. 1.

[4] = system: S. aureus; assay: as above; assay type: cell-based; settings: Staphylococcus aureus; Gram-positive bacteria S. aureus
Description: as §3

[5] = In-vitro toxicity, MTT assay; assay type: cell-based, mouse; settings: mouse, wild-type mouse embryonic fibroblast cells (WTMEFs), read-out: Cytotoxicity IC50; for IC50 at 2 h: 2 h treatment; for IC50 at 24 h: 24 h treatment
Description: (§4) In a preferred embodiment, nigericin and compounds of formula I are tested for toxicity on Wild type mouse fibroblast cell lines using 3-(4,5-dimethylthiazol-2-yl)-2,5-diphenyltetrazolium bromide assay (MTT assay).
(§5) Wild-type mouse fibroblast cell line (WTMEFs) was used to assess the toxicity associated with nigericin and its fluorinated analogues for the viability using 3-(4,5-dimethylthiazol-2-yl)-2,5-diphenyltetrazolium bromide assay (MTT assay). WTMEFs cell line was seeded in 96-well plates at a density of 5000 cells per well in […] DMEM media containing 10% FBS. The cell lines were incubated for 24 h in a CO2 incubator at 37° C. After 24 h, the drug was added at a concentration of […] and incubated for 2 h and 24 h. MTT assay was carried out to verify the cell viability after 2 h and 24 h of drug treatment in respective plates. All drug concentration was used in triplicate (n=3).

[6] = system: Wild-type mouse fibroblast cell line (WTMEFs); assay: In-vitro toxicity, MTT assay; assay type: cell-based; settings: 24 h treatment, read-out: Cytotoxicity IC50
Description: as §4, §5

[7] = system: Polio Virus; settings: read-out: effective concentration (EC50), inhibition of viral RNA synthesis; cited from earlier work

| SMILES | Antibacterial activity by disc diffusion method (Zone measured in mm) [1] | Antibacterial activity by disc diffusion method (Zone measured in mm) [2] | Minimum inhibitory concentration (MIC) [3] | MIC [4] | IC50 at 2 h [5] | IC50 at 2 h ([5]; unit mM) | IC50 at 24 h [5] | IC50 at 24 h ([5]; unit mM) | IC50 [6] | EC50 [7] | MIC [3] |
| --- | --- | --- | --- | --- | --- | --- | --- | --- | --- | --- | --- |
| CO[C@@H]1C[C@@H](C[C@H]2CC[C@H](C)[C@H]([C@@H](C)C(=O)O)O2)O[C@]2(O[C@](C)([C@H]3CC[C@@](C)([C@@H]4O[C@@H]([C@H]5O[C@@](O)(CO)[C@H](C)C[C@@H]5C)C[C@@H]4C)O3)C[C@H]2C)[C@@H]1C [Nigericin, reference compound] | 0 mm | 22 mm | did not show any inhibition | 0.3 µM (≈ 0.217 µg/mL) | ~0.01 mM | ~0.01 mM | ~0.01 mM | ~0.01 mM | 9.22 µM | ~1 µM |  |
| COC1C[C@@H](C[C@H]2CC[C@H](C)C([C@@H](C)C(=O)Nc3ccccc3F)O2)O[C@]2(O[C@](C)(C3CC[C@@](C)(C4OC(C5O[C@@](O)(CO)[C@H](C)C[C@@H]5C)C[C@@H]4C)O3)C[C@H]2C)C1C (stereo partly drawn) [Analog N-3, (2R)—N-(2-fluorophenyl)-2-((3S,6R)-6-(((2S,4R,5R,7R)-2-((2S,3′S)-5′-((3S,5R,6R)-6-hydroxy-6-(hydroxymethyl)-3,5-dimethyltetrahydro-2H-pyran-2-yl)-2,3′-dimethyloctahydro-[2,2′-bifuran]-5-yl)-9-methoxy-2,4,10-trimethyl-1,6-dioxaspiro[4.5]decan-7-yl)methyl)-3-methyltetrahydro-2H-pyran-2-yl)propanamide] | 33 mm | 31 mm |  | 2.5 µM (≈ 2.05 µg/mL) | > 0.1 mM | > 0.1 mM | 0.0669 mM | 0.0669 mM |  |  | 0.3 µM (≈ 0.245 µg/mL) |
| COc1ccc(OC(=O)[C@H](C)C2O[C@@H](C[C@@H]3CC(OC)C(C)[C@]4(O3)O[C@](C)(C3CC[C@@](C)(C5OC(C6O[C@@](O)(CO)[C@H](C)C[C@@H]6C)C[C@@H]5C)O3)C[C@H]4C)CC[C@@H]2C)cc1 (stereo partly drawn) [Analog N-2] | 0 mm | 0 mm |  |  |  |  |  |  |  |  |  |
| COC1C[C@@H](C[C@H]2CC[C@H](C)C([C@@H](C)C(=O)Oc3ccccc3)O2)O[C@]2(O[C@](C)(C3CC[C@@](C)(C4OC(C5O[C@@](O)(CO)[C@H](C)C[C@@H]5C)C[C@@H]4C)O3)C[C@H]2C)C1C (stereo partly drawn) [Analog N-1, phenyl (2R)-2-((3S,6R)-6-(((2S,4R,5R,7R)-2-((2S,3′S)-5′-((3S,5R,6R)-6-hydroxy-6-(hydroxymethyl)-3,5-dimethyltetrahydro-2H-pyran-2-yl)-2,3′-dimethyloctahydro-[2,2′-bifuran]-5-yl)-9-methoxy-2,4,10-trimethyl-1,6-dioxaspiro[4.5]decan-7-yl)methyl)-3-methyltetrahydro-2H-pyran-2-yl)propanoate] | 0 mm | 0 mm |  |  |  |  |  |  |  |  |  |
| COC1C[C@@H](C[C@H]2CC[C@H](C)C([C@@H](C)C(=O)Nc3ccc(F)cc3)O2)O[C@]2(O[C@](C)(C3CC[C@@](C)(C4OC(C5O[C@@](O)(CO)[C@H](C)C[C@@H]5C)C[C@@H]4C)O3)C[C@H]2C)C1C (stereo partly drawn) [Analog N-5] | 30 mm | 23 mm |  | 5 µM (≈ 4.09 µg/mL) | > 0.1 mM | > 0.1 mM | 0.0598 mM | 0.0598 mM |  |  | 0.3 µM (≈ 0.245 µg/mL) |
